Entries after “also recorded” stand apart in the source; their conditions may differ.
What was measured:
UVB skin damage model = details: mouse
Description: UVB Skin Damage Model. 32 5-week old Balb/c male mice were randomized into 4 groups of 8 animals such that each group had similar body weight means. Mice were prepared for removal of hair from their entire back two days prior to UVB exposure (day 3) by using an electric shaver and depilatory cream. On day 5, mice received exposure to UVB (200 mJ/cm^2) produced by a broad band UVB lamp (Dermapal UVB Rev 2) powered by a Kernel UV Phototherapy system. UVB exposure was confined to a rectangular area of ˜8 cm^2 by a lead shielding mask. UVB doses were confirmed by dosimeter measurements (Daavlin X96). Sham animals were shaved but received no UVB treatment. Mice were dosed from day 0 to study end at day 10 via oral gavage twice daily (CBR-470-2, 50 mg/kg BID PO; BARD, 3 mg/kg PO; Vehicle, 0.5% methyl cellulose/0.5% Tween80). Mice were monitored daily for body weight changes and erythema scoring from days 5 to 10. […] Blinded erythema scores were recorded by a blinded, trained investigator according to established in house scale. […]
Percent wounded area measurements. […] Red content corresponding to wounds was then quantified as a fraction of the whole imaging field and reported as percent wounded area.
Epidermal thickness measurements. […] 24 individual measurements of epidermal thickness from 8 sections spanning a 400 μm step distance were recorded per animal by a non-blinded, trained investigator. […]

[1] = LPS acute lung injury mouse model; type: in vivo; details: 50 mg/kg intraperitoneally
Description: FIG. 23. Mice treated with CBR-470-2 or vehicle (NaOH) IP and intratracheally instill LPS to induce acute lung injury.
Systemic CBR-470-2 treatment in acute lung injury mouse model reduces bronchial alveolar lavage (immune cells) cell TNF, IL1b and IL6 production (FIG. 23). C57/B6 Mice were treated with either CBR-470-2 (50 mg/kg dissolved in water and NaOH (1:1)) or vehicle (NaOH) intraperitoneally, and intratracheally instill 0.7 mg/kg of lipopolysaccharide (LPS) to induce […].

IMR32 cells = assay: IMR32 viability with co-treatments (cell titer glo); type: cell-based
Description: FIG. 38. PGK1 toxicity can be rescued with metabolites that are involved with GSH biosynthesis and quenching of reactive oxygen species and methylglyoxal. […] IMR32 cells treated for 48 hr in presence of indicated drugs.
PGK1 toxicity can be rescued with metabolites that are involved with GSH biosynthesis and quenching of reactive oxygen species and methylglyoxal.
IMR32 cells were treated for 48 hrs with CBR-470-1 and/or BBGC at combinations of doses in a synergy matrix (FIG. 41). […] Viability measured using cell titer glo assay (Promega). Viability decreased at higher concentrations of CBR-470-1 and BBGC start at 5 uM. […] Sensitivity of cell lines to direct inhibition of GLO1 (which detoxifies MGO) is generally correlated with sensitivity to PGK1 inhibition with CBR-470-1-consistent with MGO buildup playing a role in toxicity.

In the case of `O=C(O)CN[C@H]1CS(=O)(=O)C[C@@H]1S(=O)(=O)c1ccc(Cl)c(Cl)c1` [CBR-470-2], the “NRF2 signaling in vivo (pharmacodynamic and efficacy data)” value (UVB skin damage model) is reported as “capable of modulating NRF2 signaling in vivo”, the “IL6 gene expression, lung tissue” value ([1]; LPS) is reported as “decreased gene expression of IL6” and the “IL1b production, BAL cells” value ([1]; LPS 0.7 mg/kg intratracheally) is reported as “decreased TNF, IL6, and IL1b production”. The “IL6 production, BAL cells” value ([1]; LPS 0.7 mg/kg intratracheally) was “decreased TNF, IL6, and IL1b production; also recorded: decreased IL-6, and mRNA expression in immune cells (BAL cells)” and the “TNF production, BAL cells” value ([1]; LPS 0.7 mg/kg intratracheally) was “decreased TNF, IL6, and IL1b production”.
With `CC1(C)CC(O)CC(C)(C)N1[O]` [Tempol] the “effect of co-treatment with ROS scavenger on anti-proliferative effects of CBR-470-1” value (IMR32 cells; co-treatment with CBR-470-1) was “does not effectively reduce anti-proliferative effects of CBR-470-1”.
For `CN(C)C(=N)N=C(N)N` [metformin], the “effect of co-treatment on viability effects of PGK1 inhibition” value (IMR32 cells; across cell lines, on average, IMR32 48 hr) was “do not strongly affect viability effects of PGK1 inhibition; also recorded: do not strongly effect viability effect of PGK1 inhibition”.

From patent US12048686B2, “Compositions and methods for activating NRF2-dependent gene expression” (The University of Chicago, priority 2018, dated 2024)
